Test results published in patent US20040116420A1 (priority 2001, published 2004).
pIC50: −log10 of the molar value.

Assays:
Vero cells = assay: Cytotoxicity, Vero cells, Alamar Blue; assay type: cell-based; conditions: 25 μM, 20 hours
Summary of the method: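 Overnight-seeded Vero cells were exposed to 25 μM compound in 2% FBS-DMEM for 20 h at 37 °C, 5% CO2. Alamar Blue was then added for about 6 h. The absorbance ratio relative to compound-free control gave the living-cell ratio.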

HSV-1 protease = target: T1, HSV-1 protease (Human herpesvirus 1, UniProt P10210); assay: Enzymatic assay for HSV-1 protease (assembly) inhibitor, fluorescence polarization; assay type: biochemical; conditions: read-out: HSV-1 Enzyme inhibition IC50
T1 construct: 6xHis (N); made in house; host or cells: baculovirus expression system
Summary of the method: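 His6-tagged HSV-1 UL26 protease, baculovirus-expressed, preincubated 30 min at RT with compound in 1 M citrate/phosphate buffer pH 7.4 with 20% glycerol and 2 mM TCEP. A biotin-HTYLQA*SERFRIK-DTAF substrate was then cleaved for 60 min at RT, stopped with avidin, and read by fluorescence polarization versus no-inhibitor control.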

HSV-1 = assay: Antiviral activity, HSV-1 in Vero cells, plaque method; assay type: cell-based; conditions: Human alphaherpesvirus 1, 20 hours, 90% inhibition of plaque formation
Summary of the method: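 HSV-1 (50,000 pfu in 2% FBS-DMEM) was added to Vero cells and removed, then the compound was applied in 2% FBS-DMEM for 20 h at 37° C, 5% CO2. After a freeze-thaw, virus yield in the medium was titred by plaque assay. EC90 is the concentration giving 90% plaque reduction versus the compound-free control.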

T1 sequence (P10210 1-247): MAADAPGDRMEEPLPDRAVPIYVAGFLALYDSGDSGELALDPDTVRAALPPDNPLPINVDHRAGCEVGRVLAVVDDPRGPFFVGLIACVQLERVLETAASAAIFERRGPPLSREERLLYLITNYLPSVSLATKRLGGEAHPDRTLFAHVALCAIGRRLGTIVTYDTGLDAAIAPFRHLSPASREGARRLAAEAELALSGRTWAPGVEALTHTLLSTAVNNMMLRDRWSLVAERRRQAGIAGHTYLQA

Compound | pIC50 (HSV-1 protease) | EC90 (HSV-1) [µM] | Cell viability (% of control) (Vero cells) [%]
Cc1c(NC(=O)OC(C)(C)C)ccc2nc(N[C@@H](CC3CCCCC3)C(=O)NCc3ccncc3)oc(=O)c12 [Compound No.28, (2-{2-Cyclohexyl-1S-[(pyridin-4-ylmethyl)-carbamoyl]-ethylamino}-5-methyl-4-oxo-4H-benzo[d][1,3]oxazin-6-yl)-carbamic acid tert-butyl ester] | 5.36 | < 6.3 | 70.0
Cc1c(NC(=O)OC(C)(C)C)ccc2nc(N[C@H](C(=O)N(C)CCc3cccnc3)C(C)C)oc(=O)c12 [Compound No.67, (5-Methyl-2-{2-methyl-1S-[methyl-(2-pyridin-3-yl-ethyl)-carbamoyl]-propylamino}-4-oxo-4H-benzo[d][1,3]oxazin-6-yl)-carbamic acid tert-butyl ester] | 5.82 | 5.3 | 96.5
Cc1c(NC(=O)OC(C)(C)C)ccc2nc(N[C@@H](CC(C)C)C(=O)NCc3ccccn3)oc(=O)c12 [Compound No.36, (5-Methyl-2-{3-methyl-1S-[(pyridin-2-ylmethyl)-carbamoyl]-butylamino}-4-oxo-4H-benzo[d][1,3]oxazin-6-yl)-carbamic acid tert-butyl ester] | 5.24 | 21.5 | 110.0
Cc1c(NC(=O)OC(C)(C)C)ccc2nc(N(C)[C@@H](C)C(=O)NCc3ccncc3)oc(=O)c12 [Compound No.73, [5-Methyl-2-(methyl-{1S-[(pyridin-4-ylmethyl)-carbamoyl]-ethyl}-amino)-4-oxo-4H-benzo[d][1,3]oxazin-6-yl]-carbamic acid tert-butyl ester] | 6.00 | > 12.5 | 79.8
Cc1c(NC(=O)OC(C)(C)C)ccc2nc(N3C[C@H](OCc4ccccc4)C[C@H]3C(=O)NCc3ccccn3)oc(=O)c12 [Compound No.109, (2-{4R-Benzyloxy-2S-[(pyridin-2-ylmethyl)-carbamoyl]-pyrrolidin-1-yl}-5-methyl-4-oxo-4H-benzo[d][1,3]oxazin-6-yl)-carbamic acid tert-butyl ester] | 5.85 | 8.8 | 58.5
Cc1c(NC(=O)OC(C)(C)C)ccc2nc(N3CCC[C@H]3C(=O)N(C)CCc3cccnc3)oc(=O)c12 [Compound No.92, (5-Methyl-2-{2S-[methyl-(2-pyridin-3-yl-ethyl)-carbamoyl]-pyrrolidin-1-yl}-4-oxo-4H-benzo[d][1,3]oxazin-6-yl)-carbamic acid tert-butyl ester] | < 4.70 | > 12.5 | 87.2
CCCCCCCC(=O)Nc1ccc2nc(NC(C)(C)C(=O)N(C)CCc3ccccn3)oc(=O)c2c1C [Compound No.196, Octanoic acid (5-methyl-2-{1-methyl-1-[methyl-(2-pyridin-2-yl-ethyl)-carbamoyl]-ethylamino}-4-oxo-4H-benzo[d][1,3]oxazin-6-yl)-amide] | 6.10 | 11.5 | 86.5
Cc1c(NC(=O)OC(C)(C)C)ccc2nc(N[C@H](C(=O)NCc3ccncc3)C(C)C)oc(=O)c12 [Compound No.25, (5-Methyl-2-{2-methyl-1S-[(pyridin-4-ylmethyl)-carbamoyl]-propylamino}-4-oxo-4H-benzo[d][1,3]oxazin-6-yl)-carbamic acid tert-butyl ester] | < 4.70 | > 25 | 100.0
Cc1c(NC(=O)OC(C)(C)C)ccc2nc(N(C)[C@@H](C)C(=O)NCc3cccnc3)oc(=O)c12 [Compound No.72, [5-Methyl-2-(methyl-{1S-[(pyridin-3-ylmethyl)-carbamoyl]-ethyl}-amino)-4-oxo-4H-benzo[d][1,3]oxazin-6-yl]-carbamic acid tert-butyl ester] | 5.96 | > 12.5 | 90.7
Cc1c(NC(=O)OC(C)(C)C)ccc2nc(N(C)[C@@H](C)C(=O)N(C)CCc3cccnc3)oc(=O)c12 [Compound No.77, [5-Methyl-2-(methyl-{1S-[methyl-(2-pyridin-3-yl-ethyl)-carbamoyl]-ethyl}-amino)-4-oxo-4H-benzo[d][1,3]oxazin-6-yl]-carbamic acid tert-butyl ester] | 5.74 | > 12.5 | 94.4
Cc1c(NC(=O)OC(C)(C)C)ccc2nc(N[C@@H](Cc3ccccc3)C(=O)N(C)CCc3ccncc3)oc(=O)c12 [Compound No.49, (5-Methyl-2-{1S-[methyl-(2-pyridin-4-yl-ethyl)-carbamoyl]-2-phenyl-ethylamino}-4-oxo-4H-benzo[d][1,3]oxazin-6-yl)-carbamic acid tert-butyl ester] | 6.05 | < 3.2 | 76.0
Cc1c(NC(=O)OC(C)(C)C)ccc2nc(N3CCCC[C@H]3C(=O)NCCc3ccccn3)oc(=O)c12 [Compound No.105, {5-Methyl-4-oxo-2-[2S-(2-pyridin-2-ylethylcarbamoyl)-piperidin-1-yl]-4H-benzo[d][1,3]oxazin-6-yl}-carbamic acid tert-butyl ester] | 5.54 | > 12.5 | 55.6

The next lines start with results.

pIC50 (HSV-1 protease) | EC90 (HSV-1) [µM] | Compound | Cell viability (% of control) (Vero cells) [%]
5.38 | > 12.5 | Cc1c(NC(=O)c2ccccc2[N+](=O)[O-])ccc2nc(NC(C)(C)C(=O)N(C)CCc3ccccn3)oc(=O)c12 [Compound No.140, N-(5-Methyl-2-{1-methyl-1-[methyl-(2-pyridin-2-yl-ethyl)-carbamoyl]-ethylamino}-4-oxo-4H-benzo[d][1,3]oxazin-6-yl)-2-nitro-benzamide] | 96.8
5.48 | 8.3 | Cc1ccc(C(=O)Nc2ccc3nc(NC(C)(C)C(=O)N(C)CCc4ccccn4)oc(=O)c3c2C)cc1 [Compound No.158, 4-Methyl-N-(5-methyl-2-{1-methyl-1-[methyl-(2-pyridin-2-yl-ethyl)-carbamoyl]-ethylamino}-4-oxo-4H-benzo[d][1,3]oxazin-6-yl)-benzamide] | 63.6
5.59 | 11.5 | Cc1c(NC(=O)OC(C)(C)C)ccc2nc(N(C)[C@@H](Cc3ccccc3)C(=O)N(C)CCc3ccccn3)oc(=O)c12 [Compound No.83, [5-Methyl-2-(methyl-{1S-[methyl-(2-pyridin-2-yl-ethyl)carbamoyl]-2-phenyl-ethyl}-amino)-4-oxo-4H-benzo[d][1,3]oxazin-6-yl]-carbamic acid tert-butyl ester] | 66.6
5.74 | 10.9 | Cc1c(NC(=O)c2cc(Cl)sc2Cl)ccc2nc(NC(C)(C)C(=O)N(C)CCc3ccccn3)oc(=O)c12 [Compound No.181, 2,5-Dichloro-thiophene-3-carboxylic acid (5-methyl-2-{1-methyl-1-[methyl-(2-pyridin-2-yl-ethyl)-carbamoyl]-ethylamino}-4-oxo-4H-benzo[d][1,3]oxazin-6-yl)-amide] | 44.3
5.62 | 5.4 | Cc1c(NC(=O)c2ccc(Br)cc2)ccc2nc(NC(C)(C)C(=O)N(C)CCc3ccccn3)oc(=O)c12 [Compound No.154, 4-Bromo-N-(5-methyl-2-{1-methyl-1-[methyl-(2-pyridin-2-yl-ethyl)-carbamoyl]-ethylamino}-4-oxo-4H-benzo[d][1,3]oxazin-6-yl)-benzamide] | 28.3
6.00 | 3.5 | Cc1c(NC(=O)c2ccccc2COC(=O)c2ccccc2)ccc2nc(NC(C)(C)C(=O)N(C)CCc3ccccn3)oc(=O)c12 [Compound No.186, Benzoic acid 2-(5-methyl-2-{1-methyl-1-[methyl-(2-pyridin-2-yl-ethyl)-carbamoyl]-ethylamino}-4-oxo-4H-benzo[d][1,3]oxazin-6-ylcarbamoyl)-benzyl ester] | 18.1
5.80 | 10.2 | Cc1c(NC(=O)c2ccccc2F)ccc2nc(NC(C)(C)C(=O)N(C)CCc3ccccn3)oc(=O)c12 [Compound No.147, 2-Fluoro-N-(5-methyl-2-{1-methyl-1-[methyl-(2-pyridin-2-yl-ethyl)-carbamoyl]-ethylamino}-4-oxo-4H-benzo[d][1,3]oxazin-6-yl)-benzamide] | 70.2
5.85 | 7.1 | Cc1c(NC(=O)c2ccc(OC(F)(F)F)cc2)ccc2nc(NC(C)(C)C(=O)N(C)CCc3ccccn3)oc(=O)c12 [Compound No.173, N-(5-Methyl-2-{1-methyl-1-[methyl-(2-pyridin-2-yl-ethyl)-carbamoyl]-ethylamino}-4-oxo-4H-benzo[d][1,3]oxazin-6-yl)-4-trifluoromethoxy-benzamide] | 26.1
5.82 | > 12.5 | Cc1c(NC(=O)c2ccccc2I)ccc2nc(NC(C)(C)C(=O)N(C)CCc3ccccn3)oc(=O)c12 [Compound No.155, 2-Iodo-N-(5-methyl-2-{1-methyl-1-[methyl-(2-pyridin-2-yl-ethyl)-carbamoyl]-ethylamino}-4-oxo-4H-benzo[d][1,3]oxazin-6-yl)-benzamide] | 69.1
